Measurements from PubChem BioAssay (NCI).
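GI50 = concentration required for 50% inhibition of growth. TGI marks complete inhibition of growth.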

Key:
Test in all cases: inhibition of tumour cell growth, NCI panel, 384-well format
A549 NSCLC = tested on: A549 NSCLC
COLO 205 colon = tested on: COLO 205 colon
HL-60(TB) leukemia = tested on: HL-60(TB) leukemia
PC-3 prostate = tested on: PC-3 prostate
NCI-H322M lung = tested on: NCI-H322M lung
MDA-MB-231 breast = tested on: MDA-MB-231 breast
SNB-19 CNS = tested on: SNB-19 CNS
A498 renal = tested on: A498 renal
HT29 colon = tested on: HT29 colon
MCF7 breast = tested on: MCF7 breast
NCI-H23 lung = tested on: NCI-H23 lung
EKVX NSCLC = tested on: EKVX NSCLC
U251 glioblastoma = tested on: U251 glioblastoma
HOP-92 NSCLC = tested on: HOP-92 NSCLC
SK-MEL-28 melanoma = tested on: SK-MEL-28 melanoma
SR leukemia = tested on: SR leukemia
MDA-MB-468 breast = tested on: MDA-MB-468 breast
NCI-H460 NSCLC = tested on: NCI-H460 NSCLC
HS 578T breast = tested on: HS 578T breast
HCC-2998 colon = tested on: HCC-2998 colon
OVCAR-8 ovarian = tested on: OVCAR-8 ovarian
SN12C renal = tested on: SN12C renal
HCT-116 colon = tested on: HCT-116 colon
MALME-3M melanoma = tested on: MALME-3M melanoma
SNB-75 CNS = tested on: SNB-75 CNS
NCI-H522 lung = tested on: NCI-H522 lung
ACHN renal = tested on: ACHN renal
BT-549 breast = tested on: BT-549 breast
LOX IMVI melanoma = tested on: LOX IMVI melanoma
UACC-62 melanoma = tested on: UACC-62 melanoma
SF-268 CNS = tested on: SF-268 CNS
NCI-H226 lung = tested on: NCI-H226 lung
RPMI-8226 leukemia = tested on: RPMI-8226 leukemia
DU-145 prostate = tested on: DU-145 prostate
MOLT-4 leukemia = tested on: MOLT-4 leukemia
UACC-257 melanoma = tested on: UACC-257 melanoma
M14 melanoma = tested on: M14 melanoma
CAKI-1 renal = tested on: CAKI-1 renal
RXF 393 renal = tested on: RXF 393 renal
SK-MEL-5 melanoma = tested on: SK-MEL-5 melanoma
OVCAR-3 ovarian = tested on: OVCAR-3 ovarian
HCT-15 colon = tested on: HCT-15 colon
SK-OV-3 ovarian = tested on: SK-OV-3 ovarian
KM12 colon = tested on: KM12 colon

`CCn1c(-c2nonc2N)nc2c(C#CC(C)(C)O)ncc(OC[C@H]3CCCNC3)c21` gave a GI50 (A549 NSCLC) of 4.15 µM, a TGI (A549 NSCLC) of 22.7 µM and a GI50 (COLO 205 colon) of 116 nM. For the same compound, the TGI (COLO 205 colon) was 12.1 µM, the GI50 (HL-60(TB) leukemia) was < 10 nM and the TGI (HL-60(TB) leukemia) was 101 nM. It also gave a GI50 (PC-3 prostate) of 84.6 nM, a TGI (PC-3 prostate) of 14.2 µM and a GI50 (NCI-H322M lung) of 26.8 nM. For the same compound, the TGI (NCI-H322M lung) was 18.4 µM, the GI50 (MDA-MB-231 breast) was 2620 nM and the TGI (MDA-MB-231 breast) was 16.7 µM. The GI50 (SNB-19 CNS) was 495 nM, the TGI (SNB-19 CNS) was 15.2 µM and the GI50 (A498 renal) was < 10 nM. The TGI (A498 renal) was < 10 nM, the GI50 (HT29 colon) was 199 nM and the TGI (HT29 colon) was 16.5 µM. For the same compound, the GI50 (MCF7 breast) was 26.7 nM, the TGI (MCF7 breast) was 16.6 µM and the GI50 (NCI-H23 lung) was < 10 nM. It also gave a TGI (NCI-H23 lung) of 13.6 µM, a GI50 (EKVX NSCLC) of 4.79 µM and a TGI (EKVX NSCLC) of 26.5 µM. For the same compound, the GI50 (U251 glioblastoma) was 1080 nM, the TGI (U251 glioblastoma) was 14.4 µM and the GI50 (HOP-92 NSCLC) was < 10 nM. The TGI (HOP-92 NSCLC) was 21.7 µM, the GI50 (SK-MEL-28 melanoma) was 4.69 µM and the TGI (SK-MEL-28 melanoma) was 20.4 µM. For the same compound, the GI50 (SR leukemia) was < 10 nM, the TGI (SR leukemia) was < 10 nM and the GI50 (MDA-MB-468 breast) was 99 nM. It also gave a TGI (MDA-MB-468 breast) of 19.6 µM, a GI50 (NCI-H460 NSCLC) of 195 nM and a TGI (NCI-H460 NSCLC) of 11 µM. The GI50 (HS 578T breast) was < 10 nM, the TGI (HS 578T breast) was 14.2 µM and the GI50 (HCC-2998 colon) was < 10 nM. The TGI (HCC-2998 colon) was 20.9 nM, the GI50 (OVCAR-8 ovarian) was < 10 nM and the TGI (OVCAR-8 ovarian) was 17.6 µM. For the same compound, the GI50 (SN12C renal) was 90.8 nM, the TGI (SN12C renal) was 12.4 µM and the GI50 (HCT-116 colon) was 1470 nM. The TGI (HCT-116 colon) was 17.7 µM, the GI50 (MALME-3M melanoma) was 183 nM and the TGI (MALME-3M melanoma) was 17.6 µM. The GI50 (SNB-75 CNS) was 216 nM, the TGI (SNB-75 CNS) was 17.1 µM and the GI50 (NCI-H522 lung) was 1250 nM. The TGI (NCI-H522 lung) was 4.73 µM, the GI50 (ACHN renal) was < 10 nM and the TGI (ACHN renal) was 129 nM. For the same compound, the GI50 (BT-549 breast) was < 10 nM, the TGI (BT-549 breast) was 2130 nM and the GI50 (LOX IMVI melanoma) was 1050 nM. The TGI (LOX IMVI melanoma) was 8.42 µM, the GI50 (UACC-62 melanoma) was 220 nM and the TGI (UACC-62 melanoma) was 16.8 µM. It also gave a GI50 (SF-268 CNS) of 6.19 µM, a TGI (SF-268 CNS) of 20.2 µM and a GI50 (NCI-H226 lung) of 4.62 µM. For the same compound, the TGI (NCI-H226 lung) was 18.5 µM, the GI50 (RPMI-8226 leukemia) was < 10 nM and the TGI (RPMI-8226 leukemia) was 283 nM. For the same compound, the GI50 (DU-145 prostate) was 93.8 nM, the TGI (DU-145 prostate) was 13.8 µM and the GI50 (MOLT-4 leukemia) was < 10 nM. For the same compound, the TGI (MOLT-4 leukemia) was < 10 nM, the GI50 (UACC-257 melanoma) was 2000 nM and the TGI (UACC-257 melanoma) was 16.7 µM. The GI50 (M14 melanoma) was < 10 nM, the TGI (M14 melanoma) was < 10 nM and the GI50 (CAKI-1 renal) was 411 nM. The TGI (CAKI-1 renal) was 16.7 µM, the GI50 (RXF 393 renal) was < 10 nM and the TGI (RXF 393 renal) was 19.2 µM. For the same compound, the GI50 (SK-MEL-5 melanoma) was < 10 nM, the TGI (SK-MEL-5 melanoma) was 190 nM and the GI50 (OVCAR-3 ovarian) was 198 nM. It also gave a TGI (OVCAR-3 ovarian) of 15.2 µM, a GI50 (HCT-15 colon) of 984 nM and a TGI (HCT-15 colon) of 64.2 µM. It also gave a GI50 (SK-OV-3 ovarian) of 42.2 nM, a TGI (SK-OV-3 ovarian) of 12.7 µM and a GI50 (KM12 colon) of 18 nM. For the same compound, the TGI (KM12 colon) was 14.4 µM.
